The values that follow come from publication PMC4575644 (ACS chemical biology, 2015).

Format in all cases: cell-based
In test [1] the target is T1, N-acylethanolamine acid amidase (hNAAA) (Homo sapiens, UniProt Q02083).
T1 sequence (Q02083 29-125): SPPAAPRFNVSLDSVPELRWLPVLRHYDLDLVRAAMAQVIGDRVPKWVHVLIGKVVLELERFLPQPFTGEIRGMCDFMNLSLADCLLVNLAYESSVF
T1 sequence (Q02083 126-359): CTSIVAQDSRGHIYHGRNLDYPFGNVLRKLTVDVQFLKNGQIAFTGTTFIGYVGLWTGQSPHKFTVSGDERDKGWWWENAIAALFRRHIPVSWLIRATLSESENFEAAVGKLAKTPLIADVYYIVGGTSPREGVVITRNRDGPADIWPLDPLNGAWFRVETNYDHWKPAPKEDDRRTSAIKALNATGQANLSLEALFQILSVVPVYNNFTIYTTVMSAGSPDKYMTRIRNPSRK
Kind of test: competitive ABPP against probe […] in intact NAAA-HEK293 cells.

Another test concerns the target T2, acid ceramidase (AC) (Rattus norvegicus, UniProt Q6P7S1).
T2 sequence (Q6P7S1 21-141): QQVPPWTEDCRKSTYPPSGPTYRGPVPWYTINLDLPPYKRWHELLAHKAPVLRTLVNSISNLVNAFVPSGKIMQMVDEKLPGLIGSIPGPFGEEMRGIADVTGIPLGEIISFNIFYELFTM
T2 sequence (Q6P7S1 142-394): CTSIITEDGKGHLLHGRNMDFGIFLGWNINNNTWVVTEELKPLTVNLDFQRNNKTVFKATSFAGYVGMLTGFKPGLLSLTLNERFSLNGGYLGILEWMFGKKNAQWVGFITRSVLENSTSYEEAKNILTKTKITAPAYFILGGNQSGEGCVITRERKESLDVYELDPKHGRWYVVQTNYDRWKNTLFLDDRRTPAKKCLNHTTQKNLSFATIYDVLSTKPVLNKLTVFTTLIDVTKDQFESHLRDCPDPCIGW
Kind of test: enzyme inhibition IC50.

In test [2] the target is T3, N-acylethanolamine acid amidase (rNAAA) (Rattus norvegicus, UniProt Q5KTC7).
T3 sequence (Q5KTC7 34-130): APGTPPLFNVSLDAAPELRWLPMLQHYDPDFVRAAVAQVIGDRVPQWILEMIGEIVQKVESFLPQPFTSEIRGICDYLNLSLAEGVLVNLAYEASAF
T3 sequence (Q5KTC7 131-362): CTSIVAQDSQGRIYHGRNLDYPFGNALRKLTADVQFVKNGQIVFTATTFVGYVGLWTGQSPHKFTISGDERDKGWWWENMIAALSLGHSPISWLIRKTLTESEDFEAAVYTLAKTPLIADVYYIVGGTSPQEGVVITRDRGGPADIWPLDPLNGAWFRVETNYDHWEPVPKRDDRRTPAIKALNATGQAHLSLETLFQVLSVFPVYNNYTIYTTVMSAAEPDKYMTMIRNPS
Kind of test: enzyme inhibition IC50.

As to `C[C@@H]1OC(=O)[C@@H]1NC(=O)OCCCCCc1ccccc1` [ARN077, 5-phenylpentyl N-[(2S,3R)-2-methyl-4-oxo-oxetan-3-yl]carbamate], the “competitive ABPP against probe 1 in intact NAAA-HEK293 cells (40 μM)” value in test [1] is listed as “In either case, a decrease in signal intensity was observed, but a more pronounced masking of NAAA was noted”.
One may read the IC50 as the point on the concentration scale where inhibition reaches its midpoint. Low readings indicate inhibition by little substance, high ones a need for much substance. `C#CCCCCCCCCCOC(=O)N[C@H]1CNC1=O` [compound 1, undec-10-ynyl N-[(3S)-2-oxoazetidin-3-yl]carbamate]: the 50% inhibitory concentration (IC50) came to 1200 nM against acid ceramidase (AC) and 13 nM in test [2].
